# Measurements: patent US6825227B2, “Method for fighting against arthropods destructive of crops and compositions therefor” (priority 2000, dated 2004)
# Tests used:
# Type in all cases: in vivo
# Nilaparvata lugens [1] = assay: Process Example F: variation in number of Nilaparvata lugens after treatment
# From the text: (§1) This process example gives an illustration of a process according to the invention which is useful for insecticidal treatment against Nilaparvata lugens.
# (§2) The operating and measuring conditions are reproduced and adapted from Process Example B.
# The active materials used, their application rates and the results obtained are collated in Table 6.
# rice crop = assay: Process Example D: yield of a rice crop with control of the insects which ravage it; conditions: versus plot without treatment
# Protocol: This process example according to the invention gives an illustration of the improvement in the yield of a rice crop obtained concomitantly with the control of the insects which ravage this rice crop.
# In this treatment Process Example according to the invention, the yield of the crop was evaluated, along with the improvement in this yield obtained by carrying out the said process according to the invention simultaneously using fipronil as compound (A) and cypermethrin as compound (B).
# as §2
# The application rates and the results are collated in Table 4.
# Nilaparvata lugens [2] = assay: Process Example C: insecticidal treatment against Nilaparvata lugens
# From the text: (§3) The operating conditions were reproduced and adapted from those of Process Example A.
# (§4) The active material(s) was(were) applied to the plots 25 days after planting out.
# (§5) The rates of active materials applied and the results obtained 14 days after application are collated in Table 2.
# This process example gives an illustration of a process according to the invention which is useful for insecticidal treatment against Nilaparvata lugens. The operating and measuring conditions are reproduced and adapted from Process Example B.
# The application rates and the results are collated in Table 3.
# Nephotettix apicalis [3] = assay: Process Example G: variation in number of Nephotettix apicalis after treatment
# From the text: This process example gives an illustration of a process according to the invention which is useful for insecticidal treatment against Nephotettix apicalis. The operating and measuring conditions are reproduced and adapted from Process Example B.
# The active materials used, their application rates and the results obtained are collated in Table 7.
# Nephotettix apicalis [4] = assay: Process Example B: insecticidal treatment of a rice crop against leafhoppers; conditions: applied 25 days after planting out, 14 days after application
# Protocol: This process example gives an illustration of a process according to the invention which is useful for insecticidal treatment against leafhoppers and in particular against Nephotettix apicalis.
# This process according to the invention was carried out for the treatment of a rice crop.
# as §3
# The active materials used were fipronil and deltamethrin in a formulation in the form of granules according to Composition Example A.
# as §4, §5
# Nilaparvata lugens [5] = assay: Process Example E: variation in number of Nilaparvata lugens after treatment
# From the text: as §1, §2
# The active materials used, their application rates and the results obtained are collated in Table 5.
# Tryporyza incertulas [6] = assay: Process Example A: treatment of rice plots against yellow rice stem borer, count of dead plant cores; conditions: applied 7 days after planting out
# Protocol: The treatment process carried out was a treatment process against yellow rice stem borer or Tryporyza incertulas during the infestation of a rice crop. For the comparison of the process according to the invention with known insecticidal treatment processes, four plots were prepared in a similar manner.
# The first is left without treatment, the second is treated with fipronil as active material, the third with deltamethrin and the fourth with fipronil and deltamethrin in accordance with the process according to the invention.
# After sowing and then growing, the rice seedlings are transplanted at the three- to four-leaf stage.
# The various active materials were then applied 7 days after planting out.
# The formulation used in this process according to the invention is identical to that of Composition Example A.
# The application rates and the results obtained are collated in Table 1.
# The measurement was carried out by counting the number of rice plant cores that were dead due to attack by the damaging insects treated, i.e. Tryporyza incertulas; thus, the smallest number is obtained after carrying out the process according to the invention, while the untreated plots or plots treated in a known manner give substantially larger numbers.
# Nilaparvata lugens [7] = assay: Process Example I: variation in number of Nilaparvata lugens after treatment; conditions: fipronil 25 g/ha
# From the text: as §1, §2
# The active materials used, their application rates and the results obtained are collated in Table 9.
# Scotinophara lurida = assay: Process Example K: treatment of a rice crop against Scotinophara lurida; conditions: fipronil 25 g/ha
# From the text: The treatment process used was a process of treatment against Scotinophara lurida during the infestation of a rice crop.
# as §2
# The active materials used, their application rates and the results obtained are collated in Table 11.
# Tryporyza incertulas [8] = assay: Process Example J: treatment of a rice crop against yellow rice stem borer, variation in dead plant cores; conditions: fipronil 25 g/ha
# Protocol: The treatment process used was a process of treatment against yellow rice stem borer or Tryporyza incertulas during the infestation of a rice crop.
# as §2
# The active materials used, their application rates and the results obtained are collated in Table 10.
# The measurement was carried out by counting the number of rice plant cores that were dead due to attack by the damaging insects treated, i.e. Tryporyza incertulas; thus, the greatest degree of reduction is obtained after carrying out the process according to the invention, whereas the untreated plots or plots treated in a known manner give substantially more mediocre degrees.
# Nilaparvata lugens [9] = assay: Process Example H: variation in number of Nilaparvata lugens after treatment; conditions: fipronil 25 g/ha
# From the text: as §1, §2
# The active materials used, their application rates and the results obtained are collated in Table 8.
compound,measurement,setting,value
"CC1(C)C(C=C(Cl)Cl)C1C(=O)OC(C#N)c1cccc(Oc2ccccc2)c1 [cypermethrin, (R,S)-α-cyano-3-phenoxybenzyl (1RS,3RS;1RS,3SR)-3-(2,2-dichlorovinyl)-2,2-dimethylcyclopropanecarboxylate]",Degree of variation in the number of damaging insects 3 days after application,Nilaparvata lugens [1]; cypermethrin 12.5 g/ha,−27%
same,Degree of variation in the number of damaging insects 7 days after application,Nilaparvata lugens [1]; cypermethrin 12.5 g/ha,+13%
same,Improvement in the yield of the plot (%),rice crop; cypermethrin 12.5 g/ha,78%
same,Insecticidal efficacy,Nilaparvata lugens [2]; cypermethrin 12.5 g/ha,21%
"CC1(C)[C@H](C(=O)O[C@H](C#N)c2cccc(Oc3ccccc3)c2)[C@@H]1C=C(Br)Br [deltamethrin, (S)-α-cyano-3-phenoxybenzyl (1R,3R)-3-(2,2-dibromovinyl)-2,2-dimethylcyclopropanecarboxylate]",Degree of variation in the number of damaging insects 1 day after application,Nephotettix apicalis [3]; deltamethrin 6 g/ha,−13%
same,Degree of variation in the number of damaging insects 3 days after application,Nephotettix apicalis [3]; deltamethrin 6 g/ha,+25%
same,Degree of variation in the number of damaging insects 7 days after application,Nephotettix apicalis [3]; deltamethrin 6 g/ha,+75%
same,Insecticidal efficacy,Nephotettix apicalis [4]; deltamethrin 6 g/ha,6%
same,Degree of variation in the number of damaging insects 3 days after application,Nilaparvata lugens [5]; deltamethrin 6 g/ha,+27%
same,Degree of variation in the number of damaging insects 7 days after application,Nilaparvata lugens [5]; deltamethrin 6 g/ha,0%
same,Proportion of dead plant cores found,Tryporyza incertulas [6]; deltamethrin 6 g/ha,66%
"N#Cc1nn(-c2c(Cl)cc(C(F)(F)F)cc2Cl)c(N)c1[S+]([O-])C(F)(F)F (stereo not shown) [fipronil, 5-amino-3-cyano-1-(2,6-dichloro-4-trifluoromethylphenyl)-4-trifluoromethylsulphinylpyrazole]",Degree of variation in the number of damaging insects 7 days after application,Nilaparvata lugens [7],+19%
same,Degree of variation in the number of damaging insects 3 days after application,Nilaparvata lugens [1]; fipronil 25 g/ha,+33%
same,Degree of variation in the number of damaging insects 7 days after application,Nilaparvata lugens [1]; fipronil 25 g/ha,+11%
same,Degree of variation in the number of damaging insects 1 day after treatment,Scotinophara lurida; 1 day,−43%
same,Degree of variation in the number of damaging insects 3 days after treatment,Scotinophara lurida; 3 days,−67%
same,Degree of variation in the number of damaging insects 14 days after treatment,Scotinophara lurida; 14 days,−45%
same,Improvement in the yield of the plot (%),rice crop; fipronil 10 g/ha,188%
same,Degree of variation in the number of damaging insects 1 day after application,Nephotettix apicalis [3]; fipronil 25 g/ha,+50%
same,Degree of variation in the number of damaging insects 3 days after application,Nephotettix apicalis [3]; fipronil 25 g/ha,+83%
same,Degree of variation in the number of damaging insects 7 days after application,Nephotettix apicalis [3]; fipronil 25 g/ha,+183%
same,Insecticidal efficacy,Nephotettix apicalis [4]; fipronil 25 g/ha,16%
same,Degree of variation in the number of dead plant cores,Tryporyza incertulas [8],−35%
same,Degree of variation in the number of damaging insects 3 days after application,Nilaparvata lugens [5]; fipronil 25 g/ha,+33%
same,Degree of variation in the number of damaging insects 7 days after application,Nilaparvata lugens [5]; fipronil 25 g/ha,+11%
same,Insecticidal efficacy,Nilaparvata lugens [2]; fipronil 10 g/ha,78%
same,Proportion of dead plant cores found,Tryporyza incertulas [6]; fipronil 10 g/ha,56%
same,Degree of variation in the number of damaging insects 1 day after application,Nilaparvata lugens [9]; 1 day,−15%
same,Degree of variation in the number of damaging insects 3 days after application,Nilaparvata lugens [9]; 3 days,−8%
same,Degree of variation in the number of damaging insects 7 days after application,Nilaparvata lugens [9]; 7 days,−16%
same,Degree of variation in the number of damaging insects 14 days after application,Nilaparvata lugens [9]; 14 days,+40%
